{"source": "EPA's ToxRefDB 2", "key": {"rat [1]": {"system": "rat", "settings": "Multigenerational reproductive toxicity study, wistar, Oral, Gavage/Intubation, dose end: 2 generation"}, "rat [2]": {"system": "rat", "settings": "Prenatal developmental toxicity study, sprague dawley, Oral, Gavage/Intubation, dose end: 15 GD"}, "rabbit [3]": {"system": "rabbit", "settings": "Prenatal developmental toxicity study, dutch, Oral, Gavage/Intubation, dose end: 18 GD"}, "rat [4]": {"system": "rat", "settings": "Multigenerational reproductive toxicity study, sprague dawley, Oral, Feed, dose end: 2 generation"}, "rat [5]": {"system": "rat", "settings": "Multigenerational reproductive toxicity study, sprague dawley, Oral, Feed, dose end: 2 generation", "remark": "listed apart in the source"}, "rat [6]": {"system": "rat", "settings": "Prenatal developmental toxicity study, sprague dawley, Oral, Gavage/Intubation, dose end: 15 GD", "remark": "listed apart in the source"}, "rat [7]": {"system": "rat", "settings": "Prenatal developmental toxicity study, sprague dawley, Oral, Gavage/Intubation, dose end: 16 GD"}, "rabbit [8]": {"system": "rabbit", "settings": "Prenatal developmental toxicity study, new zealand white, Oral, Gavage/Intubation, dose end: 18 GD"}, "[9]": {"settings": "group: offspring, developmental / offspring survival late / lactation index / lactation index"}, "[10]": {"settings": "group: parental, systemic / in life observation / body weight / body weight + systemic / in life observation / clinical signs / poor general condition"}, "[11]": {"settings": "group: developmental, developmental / developmental malformation / bone / [other] + developmental / developmental malformation / bone / incomplete ossification + …"}, "[12]": {"settings": "group: maternal, systemic / in life observation / body weight / body weight gain"}, "[13]": {"settings": "group: developmental, systemic / in life observation / body weight / fetal weight"}, "[14]": {"settings": "group: maternal, reproductive / reproductive performance / resorptions / resorptions + systemic / in life observation / body weight / body weight gain + …"}, "[15]": {"settings": "group: offspring, developmental / offspring survival late / viability index / viability index + developmental / developmental landmark / anogenital distance (…"}, "[16]": {"settings": "group: offspring, systemic / organ weight / kidney / absolute + systemic / organ weight / liver / absolute + systemic / pathology microscopic / liver / …"}, "[17]": {"settings": "group: parental, systemic / in life observation / body weight / body weight + systemic / organ weight / kidney / absolute + systemic / organ weight / liver…"}, "[18]": {"settings": "group: parental, systemic / organ weight / liver / absolute + systemic / pathology microscopic / liver / hypertrophy + systemic / organ weight / kidney / …"}, "[19]": {"settings": "group: reproductive, reproductive / offspring survival early / birth index / live birth index"}, "[20]": {"settings": "group: offspring, systemic / organ weight / kidney / absolute + systemic / organ weight / liver / absolute + systemic / pathology gross / kidney / enlarged + …"}, "[21]": {"settings": "group: parental, systemic / organ weight / liver / absolute + systemic / organ weight / kidney / absolute"}, "[22]": {"settings": "group: developmental, developmental / developmental malformation / bone / incomplete ossification + developmental / developmental malformation / bone / …"}, "[23]": {"settings": "group: maternal, systemic / in life observation / body weight / body weight gain + systemic / in life observation / food consumption / food consumption"}, "[24]": {"settings": "group: maternal, systemic / in life observation / food consumption / food consumption"}, "[25]": {"settings": "group: maternal, systemic / in life observation / food consumption / food consumption + systemic / in life observation / body weight / body weight"}, "[26]": {"settings": "group: developmental, developmental / developmental malformation / bone / absent + developmental / developmental malformation / bone / full supernumerary"}, "[27]": {"settings": "group: maternal, systemic / in life observation / clinical signs / respiration (dyspnea)"}}, "data": [{"smiles": "N#Cc1ccc(CC(=NNC(=O)Nc2ccc(OC(F)(F)F)cc2)c2cccc(C(F)(F)F)c2)cc1", "note": "(mixture of isomers) [Metaflumizone]", "values": [{"measurement": "LEL", "setting": "rat [1]; [9]", "result": 50, "unit": "mg/kg/day"}, {"measurement": "LOAEL", "setting": "rat [1]; [9]", "result": 50, "unit": "mg/kg/day"}, {"measurement": "NEL", "setting": "rat [1]; [9]", "result": 20, "unit": "mg/kg/day"}, {"measurement": "NOAEL", "setting": "rat [1]; [9]", "result": 20, "unit": "mg/kg/day"}, {"measurement": "LEL", "setting": "rat [1]; [10]", "result": 50, "unit": "mg/kg/day"}, {"measurement": "LOAEL", "setting": "rat [1]; [10]", "result": 50, "unit": "mg/kg/day"}, {"measurement": "NEL", "setting": "rat [1]; [10]", "result": 20, "unit": "mg/kg/day"}, {"measurement": "NOAEL", "setting": "rat [1]; [10]", "result": 20, "unit": "mg/kg/day"}]}, {"smiles": "Cc1cccc(N)c1N", "note": "[2,3-Diaminotoluene]", "values": [{"measurement": "LEL", "setting": "rat [2]; group: developmental, developmental / developmental malformation / bone / [other] + developmental / developmental malformation / bone / incomplete ossification", "result": 100, "unit": "mg/kg/day"}, {"measurement": "LOAEL", "setting": "rat [2]; [11]", "result": "> 300", "unit": "mg/kg/day"}, {"measurement": "NEL", "setting": "rat [2]; [11]", "result": 30, "unit": "mg/kg/day"}, {"measurement": "NOAEL", "setting": "rat [2]; [11]", "result": "≥ 300", "unit": "mg/kg/day"}, {"measurement": "LEL", "setting": "rat [2]; [12]", "result": 300, "unit": "mg/kg/day"}, {"measurement": "LOAEL", "setting": "rat [2]; [12]", "result": "> 300", "unit": "mg/kg/day"}, {"measurement": "NEL", "setting": "rat [2]; [12]", "result": 100, "unit": "mg/kg/day"}, {"measurement": "NOAEL", "setting": "rat [2]; [12]", "result": "≥ 300", "unit": "mg/kg/day"}, {"measurement": "LEL", "setting": "rabbit [3]; [13]", "result": 100, "unit": "mg/kg/day"}, {"measurement": "LOAEL", "setting": "rabbit [3]; [13]", "result": "> 100", "unit": "mg/kg/day"}, {"measurement": "NEL", "setting": "rabbit [3]; [13]", "result": 30, "unit": "mg/kg/day"}, {"measurement": "NOAEL", "setting": "rabbit [3]; [13]", "result": "≥ 100", "unit": "mg/kg/day"}, {"measurement": "NEL", "setting": "rabbit [3]; group: maternal, reproductive / reproductive performance / resorptions / resorptions + systemic / in life observation / body weight / body weight gain", "result": 30, "unit": "mg/kg/day"}, {"measurement": "LEL", "setting": "rabbit [3]; [14]", "result": 100, "unit": "mg/kg/day"}, {"measurement": "LOAEL", "setting": "rabbit [3]; [14]", "result": "> 100", "unit": "mg/kg/day"}, {"measurement": "NOAEL", "setting": "rabbit [3]; [14]", "result": "≥ 100", "unit": "mg/kg/day"}]}, {"smiles": "CC(C)CCCCCCCOC(=O)c1ccccc1C(=O)OCCCCCCCC(C)C", "note": "[Diisodecyl phthalate]", "values": [{"measurement": "LOAEL", "setting": "rat [4]; [15]", "result": "> 400", "unit": "mg/kg/day"}, {"measurement": "NOAEL", "setting": "rat [4]; [15]", "result": "≥ 400", "unit": "mg/kg/day"}, {"measurement": "LEL", "setting": "rat [4]; [16]", "result": 100, "unit": "mg/kg/day"}, {"measurement": "NEL", "setting": "rat [4]; [16]", "result": "< 100", "unit": "mg/kg/day"}, {"measurement": "LOAEL", "setting": "rat [4]; [17]", "result": "> 400", "unit": "mg/kg/day"}, {"measurement": "NOAEL", "setting": "rat [4]; [17]", "result": "≥ 400", "unit": "mg/kg/day"}, {"measurement": "LEL", "setting": "rat [4]; [18]", "result": 100, "unit": "mg/kg/day"}, {"measurement": "NEL", "setting": "rat [4]; [18]", "result": "< 100", "unit": "mg/kg/day"}, {"measurement": "LEL", "setting": "rat [4]; [19]", "result": 100, "unit": "mg/kg/day"}, {"measurement": "LOAEL", "setting": "rat [4]; [19]", "result": "> 400", "unit": "mg/kg/day"}, {"measurement": "NEL", "setting": "rat [4]; [19]", "result": "< 100", "unit": "mg/kg/day"}, {"measurement": "NOAEL", "setting": "rat [4]; [19]", "result": "≥ 400", "unit": "mg/kg/day"}, {"measurement": "LEL", "setting": "rat [5]; [20]", "result": 100, "unit": "mg/kg/day"}, {"measurement": "LOAEL", "setting": "rat [5]; [20]", "result": "> 200", "unit": "mg/kg/day"}, {"measurement": "NEL", "setting": "rat [5]; [20]", "result": 30, "unit": "mg/kg/day"}, {"measurement": "NOAEL", "setting": "rat [5]; [20]", "result": "≥ 200", "unit": "mg/kg/day"}, {"measurement": "NEL", "setting": "rat [5]; group: parental, systemic / organ weight / liver / absolute", "result": 100, "unit": "mg/kg/day"}, {"measurement": "LEL", "setting": "rat [5]; [21]", "result": 200, "unit": "mg/kg/day"}, {"measurement": "LOAEL", "setting": "rat [5]; [21]", "result": "> 200", "unit": "mg/kg/day"}, {"measurement": "NOAEL", "setting": "rat [5]; [21]", "result": "≥ 200", "unit": "mg/kg/day"}, {"measurement": "LEL", "setting": "rat [5]; [19]", "result": 100, "unit": "mg/kg/day"}, {"measurement": "LOAEL", "setting": "rat [5]; [19]", "result": "> 200", "unit": "mg/kg/day"}, {"measurement": "NEL", "setting": "rat [5]; [19]", "result": 30, "unit": "mg/kg/day"}, {"measurement": "NOAEL", "setting": "rat [5]; [19]", "result": "≥ 200", "unit": "mg/kg/day"}, {"measurement": "LEL", "setting": "rat [6]; [22]", "result": 1000, "unit": "mg/kg/day"}, {"measurement": "LOAEL", "setting": "rat [6]; [22]", "result": "> 1000", "unit": "mg/kg/day"}, {"measurement": "NEL", "setting": "rat [6]; [22]", "result": 500, "unit": "mg/kg/day"}, {"measurement": "NOAEL", "setting": "rat [6]; [22]", "result": "≥ 1000", "unit": "mg/kg/day"}, {"measurement": "LEL", "setting": "rat [6]; [23]", "result": 1000, "unit": "mg/kg/day"}, {"measurement": "LOAEL", "setting": "rat [6]; [23]", "result": "> 1000", "unit": "mg/kg/day"}, {"measurement": "NEL", "setting": "rat [6]; [23]", "result": 500, "unit": "mg/kg/day"}, {"measurement": "NOAEL", "setting": "rat [6]; [23]", "result": "≥ 1000", "unit": "mg/kg/day"}]}, {"smiles": "C=CCOC(Cn1ccnc1)c1ccc(Cl)cc1Cl.O=S(=O)(O)O", "note": "(configuration not stated) [Imazalil sulfate]", "values": [{"measurement": "LEL", "setting": "rat [7]; [13]", "result": 80, "unit": "mg/kg/day"}, {"measurement": "LOAEL", "setting": "rat [7]; [13]", "result": 80, "unit": "mg/kg/day"}, {"measurement": "NEL", "setting": "rat [7]; [13]", "result": 40, "unit": "mg/kg/day"}, {"measurement": "NOAEL", "setting": "rat [7]; [13]", "result": 40, "unit": "mg/kg/day"}, {"measurement": "LOAEL", "setting": "rat [7]; [24]", "result": 40, "unit": "mg/kg/day"}, {"measurement": "NOAEL", "setting": "rat [7]; [24]", "result": "< 40", "unit": "mg/kg/day"}, {"measurement": "LEL", "setting": "rat [7]; [25]", "result": 40, "unit": "mg/kg/day"}, {"measurement": "NEL", "setting": "rat [7]; [25]", "result": "< 40", "unit": "mg/kg/day"}, {"measurement": "LEL", "setting": "rabbit [8]; [26]", "result": 20, "unit": "mg/kg/day"}, {"measurement": "LOAEL", "setting": "rabbit [8]; [26]", "result": "> 20", "unit": "mg/kg/day"}, {"measurement": "NEL", "setting": "rabbit [8]; [26]", "result": 10, "unit": "mg/kg/day"}, {"measurement": "NOAEL", "setting": "rabbit [8]; [26]", "result": "≥ 20", "unit": "mg/kg/day"}, {"measurement": "LOAEL", "setting": "rabbit [8]; [14]", "result": 10, "unit": "mg/kg/day"}, {"measurement": "NOAEL", "setting": "rabbit [8]; [14]", "result": 5, "unit": "mg/kg/day"}, {"measurement": "LEL", "setting": "rabbit [8]; [27]", "result": 5, "unit": "mg/kg/day"}, {"measurement": "NEL", "setting": "rabbit [8]; [27]", "result": "< 5", "unit": "mg/kg/day"}]}]}
